Laboratory results from patent publication US20250084092A1, “ANNULATED PYRIDAZINE COMPOUND” (Nico Therapeutics, Inc., priority 2021, published 2025).

Tests used:
3T3 = experiment: In vitro phototoxicity test (3T3 NRU); assay type: cell-based; conditions: In vitro 3T3 NRU Phototoxicity Test, OECD 432, ICH S10
Description: The evaluation of in vitro phototoxicity tests was based on ICH S10: Guidelines for Evaluation of Photosafety of Drugs (Notification No. 0521-1) using a method described in OECD Guidelines for the Testing of Chemicals 432: In vitro 3T3 NRU Phototoxicity Test, 2019).

hERG channel = hERG channel (Homo sapiens, UniProt Q12809); experiment: Safety pharmacology test: hERG channel inhibitory effect; assay type: biochemical; conditions: human Ether-a-go-go Related Gene channel
Chain of hERG channel (Q12809 whole entry): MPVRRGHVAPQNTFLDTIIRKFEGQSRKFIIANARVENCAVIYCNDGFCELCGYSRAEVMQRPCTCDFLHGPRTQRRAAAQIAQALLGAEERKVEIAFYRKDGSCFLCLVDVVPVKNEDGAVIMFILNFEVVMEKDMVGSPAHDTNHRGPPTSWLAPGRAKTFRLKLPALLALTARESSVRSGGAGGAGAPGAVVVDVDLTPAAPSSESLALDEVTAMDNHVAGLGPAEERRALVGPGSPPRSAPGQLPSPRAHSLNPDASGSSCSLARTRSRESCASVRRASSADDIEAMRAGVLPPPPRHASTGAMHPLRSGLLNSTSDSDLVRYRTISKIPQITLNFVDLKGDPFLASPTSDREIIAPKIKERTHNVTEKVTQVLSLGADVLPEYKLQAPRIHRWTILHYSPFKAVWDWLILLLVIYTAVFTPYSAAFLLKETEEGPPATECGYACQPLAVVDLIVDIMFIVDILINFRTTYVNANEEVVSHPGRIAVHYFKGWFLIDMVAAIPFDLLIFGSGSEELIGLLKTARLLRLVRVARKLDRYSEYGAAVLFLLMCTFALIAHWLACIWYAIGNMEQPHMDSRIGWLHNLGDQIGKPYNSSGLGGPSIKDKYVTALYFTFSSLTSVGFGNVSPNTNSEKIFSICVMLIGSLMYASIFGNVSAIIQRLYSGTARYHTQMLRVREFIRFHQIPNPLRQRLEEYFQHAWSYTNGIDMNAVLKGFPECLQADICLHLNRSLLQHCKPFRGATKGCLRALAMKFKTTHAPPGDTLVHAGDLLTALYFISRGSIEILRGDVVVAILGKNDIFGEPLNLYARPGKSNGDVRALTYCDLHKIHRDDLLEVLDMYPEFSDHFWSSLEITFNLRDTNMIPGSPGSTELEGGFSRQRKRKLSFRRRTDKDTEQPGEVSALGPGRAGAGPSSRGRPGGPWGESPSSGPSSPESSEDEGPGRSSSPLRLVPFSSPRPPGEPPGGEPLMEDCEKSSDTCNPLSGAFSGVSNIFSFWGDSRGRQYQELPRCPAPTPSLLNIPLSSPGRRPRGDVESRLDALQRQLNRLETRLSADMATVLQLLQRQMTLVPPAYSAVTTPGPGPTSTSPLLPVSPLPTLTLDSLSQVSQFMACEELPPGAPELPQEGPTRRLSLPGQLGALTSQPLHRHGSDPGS
Experimental: For the safety pharmacology test, evaluation of a human Ether-a-go-go Related Gene (hereinafter referred to as hERG) channel inhibitory effect was carried out. The hERG channel inhibitory effect was evaluated using a modified method described in Combinatorial Chemistry & High Throughput Screening, 12, 1, 78-95 (2009).

[1] = tested on: TNF-α production in THP-1 cells; experiment: TNF-α production inhibition test; assay type: cell-based; conditions: Homo sapiens; PMA-treated THP-1 cells, LPS 50 ng/mL, 2 hours, TNF-α in supernatant by ELISA
Experimental: PMA (phorbol myristate acetate, SIGMA, P1585) was added to THP-1 cells in an amount of 50 ng/mL to culture the cells for 2 days at 37° C. The culture medium was replaced with a serum-free RPMI-1640 medium, and a compound with a known concentration was added thereto to culture the cells at 37° C. for 15 minutes. LPS (Lipopolysaccharide SIMGA, L2880) was added so that each final concentration becomes 50 ng/mL, followed by culturing at 37° C. for 2 hours. The supernatants were collected to measure the concentration of TNF-α by ELISA (DuoSet ELISA human TNF-α, R&D Systems, DY210). The TNF-α concentrations were plotted against log concentrations of test compounds, and an IC50 value was calculated by sigmoid Emax model nonlinear regression analysis.

IL-1β p17 = experiment: Rat central nervous system IL-1β production test; assay type: in vivo; conditions: Wistar rat, oral, cerebrospinal fluid, LPS + BzATP in cisterna magna, read-out: percent inhibition of IL-1β p17 relative to the solvent-treated group
Experimental: Under isoflurane anesthesia, 10 to 14 weeks-old male Wistar rats were administered with 12.5 μg/5 μL of LPS (SIGMA, L2880) in the cisterna magna, followed by an oral administration of the test compound 2 hours later. After an additional hour, 50 μg/5 μL of BzATP(2′(3′)-O-(4-benzoylbenzoyl)adenosine 5′-triphosphate triethylammonium salt, SIGMA, B6396) was administered into the cisterna magna, and cerebrospinal fluid was collected after 30 minutes. The cerebrospinal fluid was subjected to Western blotting using an anti-IL-1β antibody (Millipore, AB1832P) to quantify IL-1β p17, and the percent inhibition relative to the solvent-treated group was calculated.
The percent inhibition of IL-1β p17 for Examples 1, 2(1), 3(1) and 124, which are compounds of formula (I), relative to the solvent-treated group is shown in the following table. In the table, Dose refers to the dosage of test compounds; Ex1, Ex2(1), Ex3(1), and Ex124 refer to Example 1, Example 2(1), Example 3(1); and Example 124; and “NT” denotes the unmeasured case.

NLRP3 inflammasome = target: T1, NLRP3 inflammasome (Homo sapiens, UniProt Q96P20); experiment: THP-1 IL-1β production inhibition test; assay type: cell-based; conditions: PMA-treated THP-1 cells, LPS 50 ng/mL + ATP 5 mM, 2 hours, IL-1β in supernatant by ELISA
T1 construct: endogenous in cells; host or cells: THP-1 cells (PMA-differentiated, stimulated with LPS and ATP)
T1 sequence (Q96P20 whole entry): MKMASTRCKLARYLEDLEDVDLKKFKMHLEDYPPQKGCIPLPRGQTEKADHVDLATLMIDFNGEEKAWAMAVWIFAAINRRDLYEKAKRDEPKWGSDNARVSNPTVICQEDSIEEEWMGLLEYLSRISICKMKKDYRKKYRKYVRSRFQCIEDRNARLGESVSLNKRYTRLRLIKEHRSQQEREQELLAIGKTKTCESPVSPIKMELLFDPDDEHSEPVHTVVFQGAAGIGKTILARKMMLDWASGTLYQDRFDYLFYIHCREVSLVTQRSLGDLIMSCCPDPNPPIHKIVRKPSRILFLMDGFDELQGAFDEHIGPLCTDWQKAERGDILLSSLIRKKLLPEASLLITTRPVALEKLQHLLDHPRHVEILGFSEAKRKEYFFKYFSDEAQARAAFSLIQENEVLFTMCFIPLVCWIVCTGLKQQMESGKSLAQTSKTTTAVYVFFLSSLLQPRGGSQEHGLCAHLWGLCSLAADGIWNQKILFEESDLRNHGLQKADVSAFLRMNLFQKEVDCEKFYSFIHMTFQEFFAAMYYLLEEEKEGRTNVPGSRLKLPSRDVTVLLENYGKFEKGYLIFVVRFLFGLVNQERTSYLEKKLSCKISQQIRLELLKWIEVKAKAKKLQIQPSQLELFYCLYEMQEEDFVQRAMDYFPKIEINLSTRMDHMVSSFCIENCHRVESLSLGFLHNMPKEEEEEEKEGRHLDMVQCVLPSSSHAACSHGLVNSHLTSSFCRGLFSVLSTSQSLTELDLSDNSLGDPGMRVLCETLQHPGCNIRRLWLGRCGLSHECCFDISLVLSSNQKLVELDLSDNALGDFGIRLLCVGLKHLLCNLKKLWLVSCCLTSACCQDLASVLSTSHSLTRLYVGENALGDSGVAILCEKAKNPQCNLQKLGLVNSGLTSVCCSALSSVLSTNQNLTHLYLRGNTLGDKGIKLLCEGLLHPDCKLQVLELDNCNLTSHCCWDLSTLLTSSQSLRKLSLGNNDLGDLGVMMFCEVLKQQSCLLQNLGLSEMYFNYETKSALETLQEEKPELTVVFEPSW
Experimental: PMA (phorbol myristate acetate, SIGMA, P1585) was added to THP-1 cells in an amount of 50 ng/mL to culture the cells for 2 days at 37° C. […] LPS (Lipopolysaccharide, SIMGA, L2880) and ATP (Adenosine triphosphate, SIGMA, A2383) were added so that final concentrations become 50 ng/mL and 5 mM, respectively, followed by culturing at 37° C. for 2 hours. The supernatants were collected to measure the concentrations of IL-1β by ELISA (DuoSet ELISA human IL-1β, R&D Systems, DY201). The IL-1β concentrations were plotted against log concentrations of test compounds, and an IC50 value was calculated by sigmoid Emax model nonlinear regression analysis.

Structure (SMILES)	IC50 [1] [µM]	IC50 (NLRP3 inflammasome) [nM]	further results
CN1Cc2c(N[C@@H]3CCCC[C@H]3O)nnc(-c3ccc(C(F)(F)F)cc3O)c2C1 [Example 99, 2-(4-{[(1R,2R)-2-hydroxycyclohexyl]amino}-6-methyl-6,7-dihydro-5H-pyrrolo[3,4-d]pyridazin-1-yl)-5-(trifluoromethyl)phenol]	≥ 10	16	–
CN1CCc2c(-c3ccc(C(F)(F)F)cc3O)nnc(N[C@@H]3CCCC[C@H]3O)c2C1 [Example 73, 2-(4-{[(1R,2R)-2-hydroxycyclohexyl]amino}-6-methyl-5,6,7,8-tetrahydropyrido[3,4-d]pyridazin-1-yl)-5-(trifluoromethyl)phenol]	≥ 10	7.6	–
Oc1cc(C(F)(F)F)ccc1-c1nnc(N[C@@H]2CCCC[C@H]2O)c2c1CCCC2 [Example 1, 2-(4-{[(1R,2R)-2-hydroxycyclohexyl]amino}-5,6,7,8-tetrahydrophthalazin-1-yl)-5-(trifluoromethyl)phenol]	≥ 10	10	phototoxic effect (3T3): no phototoxic effect; IC50 (hERG channel): ≥ 10 µM; inhibition at 0.3 mg/kg (IL-1β p17): -12%; inhibition at 1 mg/kg (IL-1β p17): 74%; inhibition at 3 mg/kg (IL-1β p17): 84%
CN1CCC[C@@H](Nc2nnc(-c3ccc(C(F)(F)F)cc3O)c3c2CSC3)C1 [Example 121]	–	8.5	–
Oc1cc(C(F)(F)F)ccc1-c1nnc(N[C@@H]2CCCC[C@H]2O)c2c1CSCC2 [Example 102]	–	5.1	–
CC(=O)N1CCC[C@@H](Oc2nnc(-c3ccc(C(F)(F)F)cc3O)c3ccccc23)C1 [Example 65]	–	48	–
OCC12CC(Nc3nnc(-c4ccc(C(F)(F)F)cc4O)c4c3CCCC4)(C1)C2 [Example 40]	–	50	–
CN1CCC[C@@H](Oc2nnc(-c3ccc(C(F)(F)F)cc3O)c3ccccc23)C1 [Example 67]	–	13	–
CC(=O)N1CCc2c(-c3ccc(C(F)(F)F)cc3O)nnc(N[C@@H]3CCCC[C@H]3O)c2C1 [Example 92, 1-[4-{[(1R,2R)-2-hydroxycyclohexyl]amino}-1-[2-hydroxy-4-(trifluoromethyl)phenyl]-7,8-dihydropyrido[3,4-d]pyridazin-6(5H)-yl]ethan-1-one]	–	47	–
C[C@]1(O)C[C@@H](Nc2nnc(-c3ccc(OC(F)(F)F)cc3O)c3c2CCOC3)C1 [57(2)]	–	94	–
C[C@]1(O)C[C@@H](Nc2nnc(-c3ccc(C(F)(F)F)cc3O)c3c2CCCCC3)C1 [Example 48]	–	36	–
Oc1cc(OC(F)(F)F)ccc1-c1nnc(N[C@@H]2CCCC[C@@H]2O)c2c1CCOC2 [Example 127, 2-(4-{[(1R,2S)-2-hydroxycyclohexyl]amino}-7,8-dihydro-5H-pyrano[3,4-d]pyridazin-1-yl)-5-(trifluoromethoxy)phenol]	–	5.6	–
COc1ccc(-c2nnc(N[C@@H]3CCOC[C@H]3O)c3c2CCCCC3)c(O)c1 [Example 49]	–	22	–

Now those with a lower IC50 (NLRP3 inflammasome), led by results:

IC50 [1] [µM]	IC50 (NLRP3 inflammasome) [nM]	Structure (SMILES)	further results
≥ 10	4.8	Oc1cc(OC(F)F)ccc1-c1nnc(N[C@@H]2CCCC[C@H]2O)c2c1CCCC2 [Example 83, 5-(difluoromethoxy)-2-(4-{[(1R,2R)-2-hydroxycyclohexyl]amino}-5,6,7,8-tetrahydrophthalazin-1-yl)phenol]	–
≥ 10	4.7	Oc1cc(C(F)(F)F)ccc1-c1nnc(N[C@@H]2CCCC[C@H]2O)c2c1CCOCC2 [Example 5, 2-(4-{[(1R,2R)-2-hydroxycyclohexyl]amino}-5,6,8,9-tetrahydrooxepino[4,5-d]pyridazin-1-yl)-5-(trifluoromethyl)phenol]	–
–	3.5	Oc1cc(C(F)(F)F)ccc1-c1nnc(N[C@@H]2CCC[C@H](O)C2)c2c1CCOC2 [Example 104]	–
≥ 10	3.4	Oc1cc(C(F)(F)F)ccc1-c1nnc(N[C@@H]2CCCC[C@H]2O)c2c1CCOC2 [Example 2(1), 2-(4-{[(1R,2R)-2-hydroxycyclohexyl]amino}-7,8-dihydro-5H-pyrano[3,4-d]pyridazin-1-yl)-5-(trifluoromethyl)phenol]	phototoxic effect (3T3): no phototoxic effect; IC50 (hERG channel): ≥ 10 µM; inhibition at 0.3 mg/kg (IL-1β p17): 81%; inhibition at 1 mg/kg (IL-1β p17): 75%; inhibition at 3 mg/kg (IL-1β p17): 88%
–	3	O=S1(=O)Cc2c(N[C@@H]3CCCC[C@H]3O)nnc(-c3ccc(C(F)(F)F)cc3O)c2C1 [131(1)]	–
≥ 10	2.9	Oc1cc(C(F)(F)F)ccc1-c1nnc(N[C@@H]2CCCC[C@H]2O)c2c1CSC2 [Example 111, 2-(4-{[(1R,2R)-2-hydroxycyclohexyl]amino}-5,7-dihydrothieno[3,4-d]pyridazin-1-yl)-5-(trifluoromethyl)phenol]	–
≥ 10	2.5	Oc1cc(C(F)(F)F)ccc1-c1nnc(N[C@@H]2CCCC[C@@H]2O)c2c1CCOC2 [4(1), 2-(4-{[(1R,2S)-2-hydroxycyclohexyl]amino}-7,8-dihydro-5H-pyrano[3,4-d]pyridazin-1-yl)-5-(trifluoromethyl)phenol]	–
≥ 10	2.2	Oc1cc(OC(F)(F)F)ccc1-c1nnc(N[C@@H]2CCCC[C@H]2O)c2c1CCOC2 [Example 3(1), 2-(4-{[(1R,2R)-2-hydroxycyclohexyl]amino}-7,8-dihydro-5H-pyrano[3,4-d]pyridazin-1-yl)-5-(trifluoromethoxy)phenol]	phototoxic effect (3T3): no phototoxic effect; IC50 (hERG channel): ≥ 10 µM; inhibition at 0.3 mg/kg (IL-1β p17): 75%; inhibition at 1 mg/kg (IL-1β p17): 82%; inhibition at 3 mg/kg (IL-1β p17): 72%
≥ 10	2.1	Oc1cc(Cl)ccc1-c1nnc(N[C@@H]2CCCC[C@H]2O)c2c1CCOC2 [Example 70, 5-chloro-2-(4-{[(1R,2R)-2-hydroxycyclohexyl]amino}-7,8-dihydro-5H-pyrano[3,4-d]pyridazin-1-yl)phenol]	–
≥ 10	1.8	Oc1cc(OC(F)F)ccc1-c1nnc(N[C@@H]2CCCC[C@H]2O)c2c1CCOC2 [Example 88, 5-(difluoromethoxy)-2-(4-{[(1R,2R)-2-hydroxycyclohexyl]amino}-7,8-dihydro-5H-pyrano[3,4-d]pyridazin-1-yl)phenol]	–
≥ 10	1.5	CN1CCC[C@@H](Nc2nnc(-c3ccc(C(F)(F)F)cc3O)c3c2COCC3)C1 [Example 125]	–
–	1.3	CN1CCC[C@@H](Nc2nnc(-c3ccc(C4CC4)cc3O)c3c2COCC3)C1 [Example 112, 5-cyclopropyl-2-(4-{[(3R)-1-methylpiperidin-3-yl]amino}-7,8-dihydro-5H-pyrano[3,4-d]pyridazin-1-yl)phenol]	–
≥ 10	0.62	CN1CCC[C@@H](Nc2nnc(-c3ccc(OC(F)F)cc3O)c3c2COCC3)C1 [Example 124, 5-(difluoromethoxy)-2-(4-{[(3R)-1-methylpiperidin-3-yl]amino}-7,8-dihydro-5H-pyrano[3,4-d]pyridazin-1-yl)phenol]	phototoxic effect (3T3): no phototoxic effect; IC50 (hERG channel): ≥ 10 µM; inhibition at 0.1 mg/kg (IL-1β p17; Dose 0.1 mg/kg): 55%; inhibition at 0.3 mg/kg (IL-1β p17): 49%; inhibition at 1 mg/kg (IL-1β p17): 96%
